Measurements published in PubChem BioAssay AID2400 (Broad Institute, 2010).
“And” between values parts separate entries of the source, which are not always exact repeats. Equal values may be shown once. The source made the active and inactive calls.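 How the source made its calls: active means fitted EC50 at or below ten times the top tested concentration; inconclusive means flat fit with activity between 30% and 70%, or an unusable fit; inactive means EC50 beyond ten times the top tested concentration.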

Test system: S. cerevisiae GRE-beta-galactosidase reporter, luminescence, 75 min
Assay: loss of DOC-induced GRE-beta-galactosidase reporter signal, dose response, Hsp90 inhibitor project, S. cerevisiae, luminescence (AID 2400)

| SMILES | EC50 |
| --- | --- |
| CC1CCC(C(C)C)C(OC(=O)Cn2c(-c3ccc(Br)cc3)[n+](C)c3ccccc32)C1 (configuration not stated) | > 16 µM (inactive) |
| NC(=NCCCCCCN=C(N)/N=C(\N)Nc1ccc(Cl)cc1)/N=C(\N)Nc1ccc(Cl)cc1 | > 16 µM (inactive) and > 15 µM (inactive) |
